Structures are written as SMILES. Where only a bound is given, the exact number is not on record here.

One experiment deals with 1083 (donor line of iPSC-derived cardiomyocytes). As to the kind of experiment: POD (EC05) for decrease in beat frequency (negative chronotrope) vs vehicle; higher = less potent (higher point of departure). As to conditions: exposure time: 90 min. On the procedure: (§1)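 Human iPSC-derived cardiomyocytes from 16 donors were exposed for 90 min at 37 °C to each PFAS at 0.1, 1, 10 and 100 µM in 0.5% DMSO, 384-well plates. Kinetic Ca2+ flux (FLIPR) and Hoechst nuclei counts were normalised to vehicle wells and fitted with a hierarchical Bayesian Hill model to give donor-specific PODs: EC05 for beat-rate increase or decrease and for decay-to-rise ratio increase (QT proxy), EC95 for peak-frequency loss (asystole), EC10 for total cell number loss. 0.03 µM is the lower bound.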
The molecule `O=C(O)C(F)(F)C(F)(F)OC(F)(F)F` [Perfluoro-3-methoxypropanoic_acid] displayed a POD vs vehicle above 100 µM.

In turn, `O=C(O)C(F)(F)C(F)(F)C(F)(F)OC(F)(C(F)(F)F)C(F)(F)F` [Perfluoro-4-isopropoxybutanoic_acid] returned a POD vs vehicle above 100 µM.

Turning to `O=S(=O)(O)C(F)(F)C(F)(F)C(F)(F)C(F)(F)F` [Perfluorobutanesulfonic_acid], the POD vs vehicle was above 100 µM.

For `O=C(O)C(F)(F)C(F)(F)C(F)(F)F` [Perfluorobutanoic_acid], the POD vs vehicle is above 100 µM.

Molecule `O=C(O)C(F)(F)C(F)(F)C(F)(F)C(F)(F)C(F)(F)C(F)(F)C(F)(F)C(F)(F)C(F)(F)F` [Perfluorodecanoic_acid] displayed a POD vs vehicle of 18.3 µM.

In turn, `O=C(O)C(F)(F)C(F)(F)C(F)(F)C(F)(F)C(F)(F)C(F)(F)F` [Perfluoroheptanoic_acid] displayed a POD vs vehicle above 100 µM.

In the case of `NS(=O)(=O)C(F)(F)C(F)(F)C(F)(F)C(F)(F)C(F)(F)C(F)(F)F` [Perfluorohexanesulfonamide], the POD vs vehicle was found to be 25.7 µM.

Turning to `O=S(=O)(O)C(F)(F)C(F)(F)C(F)(F)C(F)(F)C(F)(F)C(F)(F)F` [Perfluorohexanesulfonic_acid], the POD vs vehicle was above 100 µM.

In the case of `O=C(O)C(F)(F)C(F)(F)C(F)(F)C(F)(F)C(F)(F)F` [Perfluorohexanoic_acid], the POD vs vehicle was above 100 µM.

Molecule `O=C(O)C(F)(F)C(F)(F)C(F)(F)C(F)(F)C(F)(F)C(F)(F)C(F)(F)C(F)(F)F` [Perfluorononanoic_acid] showed a POD vs vehicle above 100 µM.

`O=S(=O)(O)C(F)(F)C(F)(F)C(F)(F)C(F)(F)C(F)(F)C(F)(F)C(F)(F)C(F)(F)F` [Perfluorooctanesulfonic_acid] came in with a POD vs vehicle above 100 µM.

`O=C(O)C(F)(F)C(F)(F)C(F)(F)C(F)(F)C(F)(F)C(F)(F)C(F)(F)F` [Perfluorooctanoic_acid] returned a POD vs vehicle above 100 µM.

As for `O=C(O)C(F)(F)C(F)(F)C(F)(F)C(F)(F)F` [Perfluoropentanoic_acid], the POD vs vehicle was above 100 µM.

Regarding `O=C(O)C(F)(F)C(F)(F)F` [Perfluoropropanoic_acid], the POD vs vehicle is above 100 µM.

Molecule `O=C(O)C(F)(F)C(F)(F)C(F)(F)C(F)(F)C(F)(F)C(F)(F)C(F)(F)C(F)(F)C(F)(F)C(F)(F)F` [Perfluoroundecanoic_acid] had a POD vs vehicle above 100 µM.

`O=S(=O)([O-])C(F)(F)C(F)(F)C(F)(F)C(F)(F)F.[K+]` [Potassium_perfluorobutanesulfonate]: the POD vs vehicle is above 100 µM.

In a further experiment the test system is 1118 (donor line of iPSC-derived cardiomyocytes). The description is as above. The conditions noted are these: exposure time: 90 min. On the procedure: as §1
In turn, `O=C(O)C(F)(F)C(F)(F)OC(F)(F)F` [Perfluoro-3-methoxypropanoic_acid] displayed a POD vs vehicle above 100 µM.

As to `O=C(O)C(F)(F)C(F)(F)C(F)(F)OC(F)(C(F)(F)F)C(F)(F)F` [Perfluoro-4-isopropoxybutanoic_acid], the POD vs vehicle is above 100 µM.

`O=S(=O)(O)C(F)(F)C(F)(F)C(F)(F)C(F)(F)F` [Perfluorobutanesulfonic_acid] showed a POD vs vehicle above 100 µM.

In the case of `O=C(O)C(F)(F)C(F)(F)C(F)(F)F` [Perfluorobutanoic_acid], the POD vs vehicle is above 100 µM.

As for `O=C(O)C(F)(F)C(F)(F)C(F)(F)C(F)(F)C(F)(F)C(F)(F)C(F)(F)C(F)(F)C(F)(F)F` [Perfluorodecanoic_acid], the POD vs vehicle was found to be 2.31 µM.

`O=C(O)C(F)(F)C(F)(F)C(F)(F)C(F)(F)C(F)(F)C(F)(F)F` [Perfluoroheptanoic_acid] returned a POD vs vehicle of 39.8 µM.

In turn, `NS(=O)(=O)C(F)(F)C(F)(F)C(F)(F)C(F)(F)C(F)(F)C(F)(F)F` [Perfluorohexanesulfonamide] returned a POD vs vehicle of 1.33 µM.

For `O=S(=O)(O)C(F)(F)C(F)(F)C(F)(F)C(F)(F)C(F)(F)C(F)(F)F` [Perfluorohexanesulfonic_acid], the POD vs vehicle worked out at 19.6 µM.

Turning to `O=C(O)C(F)(F)C(F)(F)C(F)(F)C(F)(F)C(F)(F)F` [Perfluorohexanoic_acid], the POD vs vehicle is above 100 µM.

As to `O=C(O)C(F)(F)C(F)(F)C(F)(F)C(F)(F)C(F)(F)C(F)(F)C(F)(F)C(F)(F)F` [Perfluorononanoic_acid], the POD vs vehicle worked out at 11 µM.

The molecule `O=S(=O)(O)C(F)(F)C(F)(F)C(F)(F)C(F)(F)C(F)(F)C(F)(F)C(F)(F)C(F)(F)F` [Perfluorooctanesulfonic_acid] registered a POD vs vehicle of 10.6 µM.

Take `O=C(O)C(F)(F)C(F)(F)C(F)(F)C(F)(F)C(F)(F)C(F)(F)C(F)(F)F` [Perfluorooctanoic_acid]: the POD vs vehicle turned out to be 7.02 µM.

Turning to `O=C(O)C(F)(F)C(F)(F)C(F)(F)C(F)(F)F` [Perfluoropentanoic_acid], the POD vs vehicle was above 100 µM.

Consider `O=C(O)C(F)(F)C(F)(F)F` [Perfluoropropanoic_acid], for which the POD vs vehicle was above 100 µM.

Regarding `O=C(O)C(F)(F)C(F)(F)C(F)(F)C(F)(F)C(F)(F)C(F)(F)C(F)(F)C(F)(F)C(F)(F)C(F)(F)F` [Perfluoroundecanoic_acid], the POD vs vehicle was above 100 µM.

In the case of `O=S(=O)([O-])C(F)(F)C(F)(F)C(F)(F)C(F)(F)F.[K+]` [Potassium_perfluorobutanesulfonate], the POD vs vehicle was determined as 33.8 µM.

A further experiment relates to 30171 (donor line of iPSC-derived cardiomyocytes). The description is as above. The conditions noted are these: exposure time: 90 min. The protocol:
as §1
Consider `O=C(O)C(F)(F)C(F)(F)OC(F)(F)F` [Perfluoro-3-methoxypropanoic_acid], for which the POD vs vehicle is above 100 µM.

With `O=C(O)C(F)(F)C(F)(F)C(F)(F)OC(F)(C(F)(F)F)C(F)(F)F` [Perfluoro-4-isopropoxybutanoic_acid], the POD vs vehicle is above 100 µM.

`O=S(=O)(O)C(F)(F)C(F)(F)C(F)(F)C(F)(F)F` [Perfluorobutanesulfonic_acid] came in with a POD vs vehicle of 73.6 µM.

Consider `O=C(O)C(F)(F)C(F)(F)C(F)(F)F` [Perfluorobutanoic_acid], for which the POD vs vehicle was above 100 µM.

As for `O=C(O)C(F)(F)C(F)(F)C(F)(F)C(F)(F)C(F)(F)C(F)(F)C(F)(F)C(F)(F)C(F)(F)F` [Perfluorodecanoic_acid], the POD vs vehicle was 7.83 µM.

The molecule `O=C(O)C(F)(F)C(F)(F)C(F)(F)C(F)(F)C(F)(F)C(F)(F)F` [Perfluoroheptanoic_acid] came in with a POD vs vehicle above 100 µM.

For the molecule `NS(=O)(=O)C(F)(F)C(F)(F)C(F)(F)C(F)(F)C(F)(F)C(F)(F)F` [Perfluorohexanesulfonamide], the POD vs vehicle was found to be 7.7 µM.

`O=S(=O)(O)C(F)(F)C(F)(F)C(F)(F)C(F)(F)C(F)(F)C(F)(F)F` [Perfluorohexanesulfonic_acid] returned a POD vs vehicle of 46.1 µM.

(Values after the supplement of paper PMC11368000.)
